# Assay results reported in US7119208B2, “Anti-sickling agents” (Virginia Commonwealth University, priority 2003, dated 2006).
# Values joined by “and” are separate entries in the source; they are usually repeats but may differ in a detail not shown here. Identical values can stand only once. “Also recorded” adds a separate entry of the source.
# Legend:
# AA cells = assay: Oxygen equilibrium studies with normal whole blood; format: cell-based, human; details: for P50: AA cells 40% hematocrit; for effect on the OEC of whole blood: normal adult whole blood, multi-point tonometry, in vitro; for n50 (Hill coefficient at 50% saturation in the presence of compound) / ΔP50 = P50d − P50c / P50d (value in the presence of compound): thiophene aldehydes, 5 mM, whole blood; for P50d (value in the presence of compound): repeat measurements
# SS cells [1] = assay: Antisickling studies with homozygous sickle red blood cells; format: cell-based, human; details: for predicted antisickling activities: not determined, predicted from structure-activity relationships
# patients with SCD = details: cited from earlier work; for clinical toxicity: human, in vivo
# SS cells [2] = assay: Oxygen equilibrium studies with homozygous sickle red blood cells; format: cell-based, human; details: 5 mM compound; for SS cells P50: SS cells 10% hematocrit; for SS cells ΔP50: treated minus control
# Description: SS cells were suspended in PBS to a final hematocrit of 10%. […] A 40 uL aliquot of this suspension was added to 4 ml Hemox buffer and subjected to oxygen equilibrium analysis (37° C.) using a Hemox-Analyzer (TCS Scientific Corp., Southampton, Pa.) (Asakura, 1979).
# HbS [3] = molecular target: T1, HbS (Homo sapiens, UniProt P68871+P69905, E7V); assay: Oxygen equilibrium analysis of hemolysate from compound-treated SS cells; format: cell-based; details: hemolysate after incubation of 5 mM compound with SS cells; for Hemolysate ΔP50: treated minus control
# T1 construct: The compound-treated SS cells obtained in the preceding experiment (oxygen equilibrium studies with SS cells) were hemolyzed; endogenous in cells; host or cells: homozygous sickle red blood (SS) cells from patients with SCD; hemolysate of the compound-treated cells
# HbS [4] = molecular target: T1, HbS; assay: HbS adduct formation, cation-exchange HPLC of hemolysate from compound-treated SS cells; format: cell-based; details: 5 mM compound, HPLC of hemolysate after incubation with SS cells
# SS cells [5] = assay: Antisickling studies with homozygous sickle red blood cells; format: cell-based, human; details: for inhibition at 5000 µM: Homo sapiens, Erythrocyte, read-out: Inhibition of sickling of SS cells
# Description: Briefly, SS cells suspended in buffered saline solution, pH 7.4 (hematocrit of 10 %) were incubated at 37° C. with 4% oxygen in the presence of 5 mM compound. Aliquots (10 ul) of the suspensions were obtained after 5 hrs and fixed with 2% glutaraldehyde solution without exposure to air. Morphological analysis and percentage of SS cells that were not sickled were conducted using a computer-assisted image analysis system as described elsewhere (Hijiya, 1991).
# SS cells [6] = assay: Effect of compounds on homozygous sickle red blood cell size (MCV); format: cell-based, human; details: for changes in cell volumes of SS cells: 1, 2, and 5 mM compound
# Description: To study the effect of the compounds on the degree of hydration/dehydration of SS cells, the compound-treated SS cells obtained in the preceding experiment (antisickling studies with SS cells) were evaluated with a Hemavet Cell Analyzer to determine the mean corpuscular volume (MCV).
# Hb [7] = molecular target: T2, Hb (Homo sapiens, UniProt P69905); assay: Co-crystallization of compounds with Hb, X-ray crystallography; format: binding; parameters: Purified human adult Hb in 50 mM Bis Tris buffer, pH 6.8, was prepared from discarded human blood; from tissue; host or cells: discarded human blood; Hb purified in house as in Safo and Abraham, 2003; details: deoxy Hb
# Hb [8] = molecular target: T2, Hb; details: Schiff base with N-terminal Val1 of T state Hb; cited from earlier work
# Tg sickle mice = assay: In vivo antisickling effect in transgenic sickle mice exposed to hypoxia; details: 5% oxygen
# Source text: In vivo antisickling effect of 5-HMF was investigated using transgenic (Tg) mice that produce human Hb S. Since the blood of wild type mice has an extremely right-shifted OEC (P50 of mouse blood: 40–44 mm Hg) as compared with the OEC of human blood (P50 of AA cells: 26.5 mm Hg; SS cells: 32 mm Hg), Tg sickle mice that produce approximately equal amounts of human and mouse […] and 100% human β^s-globin were used in this study. The P50 of these mice are between 26 and 34 mm Hg depending on the percentage of mouse β-globin. We used 5% oxygen (5% O2, 95% N2), because they develop pulmonary sequestration almost exclusively upon exposure of these mice to 5% O2. […] Upon exposure to hypoxia, we determine the percentage of sickled cells in the blood as well as the survival time. […] In the hypoxia experiments, the Tg sickle mice were exposed to hypoxia for up to 1 hr; any surviving mice at 1 hr were euthanized by cervical dislocation under anesthesia. In all cases, after the mouse died, it was immediately dissected. The heart, lungs, brain, liver, spleen, and kidneys were fixed in 10% phosphate-buffered formalin. Tissue samples were embedded in paraffin according to standard methods. Sections were cut and stained by a hematoxylin-eosin solution for light microscopy.
# [9] = cited from earlier work
# [10] = 5 mM compound, P50 of treated AA cells minus P50 of control
# [11] = 5 mM compound, 4% oxygen, 10% hematocrit, 5 hrs
structure (smiles),measurement,setting,value
"CCc1ccc(C=O)o1 [Compound 5EF, 5-Ethyl-2-furfuraldehyde]",n50 (Hill coefficient at 50% saturation),AA cells; 5 mM compound,1.77 ± 0.14
same,P50,"AA cells; 5 mM compound, 37° C.",10.13 ± 0.75 mmHg
same,ΔP50,AA cells; [10],−15.71 mmHg
same,predicted antisickling activities,SS cells [1],lie between those of FUF and 5HMF
"CCOC(=O)C1CSC(c2ccc(CO)o2)N1 (stereo not shown) [MSDD1, 5-hydroxymethyl-2-furfural-thiazolidine-4-carboxylic acid ethyl ester]",effect on the OEC of whole blood,AA cells,does not have effect on the OEC
O=Cc1c(O)cccc1OCCCCC(=O)O [Compound 12C79],clinical toxicity,patients with SCD,clinically non-toxic
same,compound-Hb adducts,"patients with SCD; intravenous infusion 40 mg/kg, patients with SCD",more than 30%
"Cc1ccc(C=O)o1 [Compound 5MF, 5-Methyl-2-furfuraldehyde]",n50 (Hill coefficient at 50% saturation),AA cells; 5 mM compound,1.70 ± 0.06
same,P50,"AA cells; 5 mM compound, 37° C.",9.68 ± 0.24 mmHg
same,ΔP50,AA cells; [10],−16.16 mmHg
same,predicted antisickling activities,SS cells [1],lie between those of FUF and 5HMF
"O=Cc1ccco1 [FUF, 2-furfuraldehyde]",n50 (Hill coefficient at 50% saturation),AA cells; 5 mM compound,2.30 ± 0.01
same,P50,"AA cells; 5 mM compound, 37° C.",14.49 ± 0.06 mmHg
same,ΔP50,AA cells; [10],−11.35 mmHg
same,SS cells P50,SS cells [2],15.4 ± 1.7 mmHg
same,SS cells ΔP50,SS cells [2],−15.8 mmHg
same,Hemolysate P50,HbS [3],5.3 ± 0.6 mmHg
same,Hemolysate ΔP50,HbS [3],−5.9 mmHg
same,HbS adduct,HbS [4],24% and 24 ± 5.7%
same,Sickling of SS cells,SS cells [5]; [11],70%
same,inhibition at 5000 µM,SS cells [5]; [11],30%
same,MCV,SS cells [6]; 1 mM compound,60.3 fL
same,MCV,SS cells [6]; 2 mM compound,60.0 fL
same,MCV,SS cells [6]; 5 mM compound,62.8 fL
same,changes in cell volumes of SS cells,SS cells [6],did not result in changes in cell volumes
same,Sickling of SS cells,"SS cells [1]; 1 mM compound, 4% oxygen",100%
same,Sickling of SS cells,"SS cells [1]; 2 mM compound, 4% oxygen",100%
same,inhibition at 1000 µM,"SS cells [1]; Homo sapiens, Erythrocyte, 1 mM compound, 4% oxygen, read-out: Inhibition of sickling of SS cells",0%
same,inhibition at 2000 µM,"SS cells [1]; Homo sapiens, Erythrocyte, 2 mM compound, 4% oxygen, read-out: Inhibition of sickling of SS cells",0%
same,compound binding in T state co-crystals,Hb [7],only weak binding
"O=Cc1ccc(O)c(C(=O)O)c1 [FSA, 5-formylsalicylic acid]",shift of the OEC,Hb [8],shift the OEC toward the right
Cc1ccsc1C=O [3-Methyl-2-thiophenecarboxyaldehyde],n50 (Hill coefficient at 50% saturation in the presence of compound),AA cells,2.35
same,ΔP50 = P50d − P50c,AA cells,−7.01 mmHg
same,P50d (value in the presence of compound),AA cells,21.55 mmHg and 20.63 mmHg
"O=Cc1ccc(CO)o1 [Compound 5HMF, 5-hydroxymethyl-2-furfuraldehyde]",n50 (Hill coefficient at 50% saturation),AA cells; 1 mM compound,2.08 ± 0.14
same,ΔP50,AA cells; 1 mM compound,−6.65 mmHg
same,P50,AA cells; 1 mM compound,19.19 ± 1.51 mmHg
same,n50 (Hill coefficient at 50% saturation),AA cells; 2 mM compound,1.98 ± 0.08
same,ΔP50,AA cells; 2 mM compound,−10.80 mmHg
same,P50,AA cells; 2 mM compound,15.04 ± 0.51 mmHg
same,n50 (Hill coefficient at 50% saturation),AA cells; 5 mM compound,1.88 ± 0.06
same,P50,"AA cells; 5 mM compound, 37° C.",8.32 ± 0.40 mmHg
same,ΔP50,AA cells; [10],−17.52 mmHg
same,effect on the OEC of whole blood,AA cells,able to shift the OEC to the left
same,SS cells P50,SS cells [2],6.0 ± 1.2 mmHg
same,SS cells ΔP50,SS cells [2],−25.2 mmHg
same,Hemolysate P50,HbS [3],1.8 ± 0.3 mmHg
same,Hemolysate ΔP50,HbS [3],−9.4 mmHg
same,HbS adduct,HbS [4],70% and 70 ± 10.0%
same,"inhibition of cell sickling, times more than FUF",SS cells [5]; 5 mM,~2.5 times
same,Inhibition of sickling of SS cells,SS cells [5]; [11],90%
same,Sickling of SS cells,SS cells [5]; [11],10%
same,MCV,SS cells [6]; 1 mM compound,62.5 fL
same,MCV,SS cells [6]; 2 mM compound,61.0 fL
same,MCV,SS cells [6]; 5 mM compound,61.4 fL
same,changes in cell volumes of SS cells,SS cells [6],did not result in changes in cell volumes
same,percentage of sickled cells in the arterial blood,Tg sickle mice; 5HMF 100 mg/kg,reduced the formation of POSCs; also recorded: reduced the percentage of sickled cells
same,survival of more than half of the mice,Tg sickle mice; 5HMF pretreatment,> 25 min
same,survival time under hypoxia compared to control,Tg sickle mice; 5HMF pretreatment,significantly prolonged the survival time; also recorded: prolonged the survival time significantly; also recorded: about four times longer
same,Inhibition of sickling of SS cells,"SS cells [1]; 1 mM compound, 4% oxygen",13%
same,Sickling of SS cells,"SS cells [1]; 1 mM compound, 4% oxygen",87%
same,Inhibition of sickling of SS cells,"SS cells [1]; 2 mM compound, 4% oxygen",42%
same,Sickling of SS cells,"SS cells [1]; 2 mM compound, 4% oxygen",58%
same,compound binding in T state co-crystals,Hb [7],only weak binding
"Cc1cc(C=O)cc(C)c1O [DMHB, 3,5-dimethyl-4-hydroxybenzaldehyde]",shift of the OEC,Hb [8],shift the OEC toward the left
O=Cc1ccc(Br)s1 [5-Bromo-2-thiophenecarboxyaldehyde],n50 (Hill coefficient at 50% saturation in the presence of compound),AA cells,2.35
same,ΔP50 = P50d − P50c,AA cells,−6.63 mmHg
same,P50d (value in the presence of compound),AA cells,21.96 mmHg and 20.24 mmHg
O=Cc1cc(Br)cs1 [4-Bromo-2-thiophenecarboxyaldehyde],n50 (Hill coefficient at 50% saturation in the presence of compound),AA cells,2.41
same,ΔP50 = P50d − P50c,AA cells,−10.56 mmHg
same,P50d (value in the presence of compound),AA cells,16.85 mmHg and 17.49 mmHg
"COc1cc(C=O)ccc1O [Vanillin, vanillin, reference compound]",n50 (Hill coefficient at 50% saturation),AA cells; 5 mM compound,1.98 ± 0.23
same,P50,"AA cells; 5 mM compound, 37° C.",19.06 ± 1.98 mmHg
same,ΔP50,AA cells; [10],−6.78 mmHg
same,SS cells P50,SS cells [2],17.7 ± 2.2 mmHg
same,SS cells ΔP50,SS cells [2],−13.5 mmHg
same,Sickling of SS cells,SS cells [5]; [11],80%
same,inhibition at 5000 µM,SS cells [5]; [11],20%
same,MCV,SS cells [6]; 5 mM compound,61.0 fL
same,acute oral LD50,[9]; species not stated,1.58 g/kg
same,LD50,[9]; unit taken from the 5HMF value in the same sentence,1.58 g/kg
same,clinical toxicity,patients with SCD,clinically non-toxic
